In brackets after ≈: the same amount, converted by molar mass. Where two headings read alike, the source gives them in different places.
Columns and labels:
[1] = Water solubility of hydroxyitraconazole phosphate isomers (NMG salts); type: physicochemical; details: Table 8; for solubility: water
Description: The water solubility of the NMG salts of the phosphate esters of isomers 1, 2 and 3+4 were investigated and compared to the corresponding hydroxyitraconazole isomers 1, 2 and 3+4. The phosphate esters were as much as 10^7 times more water soluble than the corresponding hydroxyitraconazole isomer.

[2] = tested on: Sacchromyces cerevisae; test: Kirby-Bauer Testing, Saccharomyces cerevisiae; type: cell-based; details: 10 μl of 10 mg/mL per disk, 30° C., 16 hours; for zone of inhibition at 10000 µg/mL: Saccharomyces cerevisiae
Experimental: The hydroxyitraconazole isomers were tested for biological activity according three different assays.
Actively growing cultures of Candida albicans, Cryptococcus neoformens and Saccharomyces cerevisiae were prepared as described above. The cultures were diluted to a 0.5 McFarland standard and swabbed onto a 150 mm Sabouraud Dextrose agar plates. Paper disks (7 mm) were placed onto the agar plates using a disk dispenser. […] The plates were then incubated at 30° C. for 16 hours. Zones of inhibition were then measured in mm.

[3] = target: T1, cytochrome P450 3A4 (Homo sapiens, UniProt P08684); test: Inhibition of cytochrome P450 3A4 (testosterone 6β-hydroxylase activity); details: for IC50/MIC ratio in words: therapeutic index, 3A4 vs C. albicans 44203
Experimental: (§2) The IC50 values were determined by the appearance of 6β-hydroxytestosterone after incubation with testosterone. […] Of greater clinical significance is the ratio of the IC50 for 3A4 to the MIC for C. albicans 44203.

[4] = Water solubility of hydroxyitraconazole isomers and itraconazole; type: physicochemical; details: for solubility: water; for solubility / Water solubility: LOD: 5000 μV*sec, order-of-magnitude accuracy below LOD, 3+4 and 11+12 ±10%; for Area: λmax = 260 nm, LOD 5000 μV*sec
Experimental: The isomers of cis hydroxyitraconazole were tested for water solubility against a […] standard solution of hydroxyitraconazole. […] The values for 3+4 and 11+12 are barely above the LOD, giving accuracies of ±10%. In every case, solubilities were in the 10^1 to 10^2 ng/ml range.

[5] = tested on: Candida albicans; test: Antifungal MIC, Candida albicans; type: cell-based
Experimental: (§1) A 10 mL tube containing 4 mL of Sabourauds dextrose broth was inoculated with 1 colony of Candida albicans picked from a plate of pure culture. The strain was ordered from the American Type Culture Collection (ATCC). The organism was grown for 4 hours at 30° C. while shaking at 150 RPM. While the organism was growing, samples of hydroxy-itraconazoles were solubilized to a concentration of 10 mg/mL in DMSO. Each sample was then diluted 1:10 to make 1 mg/mL samples or 1000 μg/mL. These samples were then diluted by serial 2-fold dilutions to produce samples now containing 1000, 500, 250, 125, 62.5, 31.25, 15.6 μg/mL. […] At 4 hours of growth time the Candida albicans was diluted to a 0.5 McFarland standard representing about 10^5 -10^6 cells/mL and 1 μL of this inoculum placed into each test well of the microtiter dish. The dish was then covered and incubated at 30° C. for 16 hours.

[6] = tested on: Cr. neoformens; test: Antifungal MIC, Cr. neoformens; type: cell-based, Cryptococcus neoformens; details: Cr. neoformens (Table 3); for MIC: Cryptococcus
Experimental: [The source words this procedure for another organism and reports this organism under the same test.] as §1

[7] = tested on: A. fumigatis; test: Antifungal MIC, A. fumigatis; type: cell-based; details: A. fumigatis (Table 3)
Experimental: [The source words this procedure for another organism and reports this organism under the same test.] as §1

[8] = tested on: S. cerevisae; test: Antifungal MIC, S. cerevisae; type: cell-based, Saccharomyces cerevisiae; details: S. cerevisae (Table 3); for MIC: Saccharomyces cerevisiae
Experimental: [The source words this procedure for another organism and reports this organism under the same test.] as §1

[9] = target: T1, cytochrome P450 3A4
Experimental: as §2

[10] = tested on: delayed rectifier (IK); details: cited from earlier work; for Effect on cardiac repolarization: Torsades de Pointes side effect
[11] = Candida albicans, Candida albicans strain 44203 (Table 4), read-out: MIC
[12] = Candida albicans, C. albicans strain 28516 (Table 3), read-out: Antifungal MIC
[13] = Candida albicans, C. albicans strain 28815 (Table 3), read-out: Antifungal MIC
[14] = Candida albicans, C. albicans strain 44203 (Table 3), read-out: Antifungal MIC
[15] = Candida albicans, C. albicans strain 44373 (Table 3), read-out: Antifungal MIC

T1 sequence (P08684 whole entry): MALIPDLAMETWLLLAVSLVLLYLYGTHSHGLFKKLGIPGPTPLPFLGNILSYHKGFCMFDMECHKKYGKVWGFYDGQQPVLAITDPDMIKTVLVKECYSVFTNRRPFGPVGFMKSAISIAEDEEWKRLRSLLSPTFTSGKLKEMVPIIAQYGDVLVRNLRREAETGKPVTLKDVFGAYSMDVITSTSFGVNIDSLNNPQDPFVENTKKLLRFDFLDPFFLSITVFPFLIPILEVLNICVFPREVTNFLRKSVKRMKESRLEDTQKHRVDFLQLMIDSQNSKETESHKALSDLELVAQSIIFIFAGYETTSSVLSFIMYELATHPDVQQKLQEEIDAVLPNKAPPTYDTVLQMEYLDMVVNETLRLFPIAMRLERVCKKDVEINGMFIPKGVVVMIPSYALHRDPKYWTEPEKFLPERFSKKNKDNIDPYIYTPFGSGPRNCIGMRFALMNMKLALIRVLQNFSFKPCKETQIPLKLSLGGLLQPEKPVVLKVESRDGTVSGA

C[C@@H](OP(=O)(O)O)[C@H](C)n1ncn(-c2ccc(N3CCN(c4ccc(OC[C@H]5CO[C@](Cn6cncn6)(c6ccc(Cl)cc6Cl)O5)cc4)CC3)cc2)c1=O [1-PO3 --NMG2]
solubility [1]: > 100000 µg/mL

C[C@H](OP(=O)(O)O)[C@@H](C)n1ncn(-c2ccc(N3CCN(c4ccc(OC[C@H]5CO[C@](Cn6cncn6)(c6ccc(Cl)cc6Cl)O5)cc4)CC3)cc2)c1=O [2-PO3 --NMG2]
solubility [1]: > 100000 µg/mL

CC(OP(=O)(O)O)C(C)n1ncn(-c2ccc(N3CCN(c4ccc(OC[C@H]5CO[C@](Cn6cncn6)(c6ccc(Cl)cc6Cl)O5)cc4)CC3)cc2)c1=O (stereo partly shown) [3 + 4-PO3 --NMG2]
solubility [1]: > 100000 µg/mL

CC(O)C(C)n1ncn(-c2ccc(N3CCN(c4ccc(OC[C@H]5CO[C@](Cn6cncn6)(c6ccc(Cl)cc6Cl)O5)cc4)CC3)cc2)c1=O (stereo partly shown) [3 + 4]
zone of inhibition at 10000 µg/mL [2]: 23 mm | selectivity ratio [3]: 24 | solubility [4]: 1.97 µg/mL | MIC [5, 11]: 0.1 µg/mL | solubility [1]: 2 µg/mL

CCC(C)n1ncn(-c2ccc(N3CCN(c4ccc(OC[C@H]5CO[C@](Cn6cncn6)(c6ccc(Cl)cc6Cl)O5)cc4)CC3)cc2)c1=O (stereo partly shown) [5 + 6]
MIC ([5]; Candida albicans): 0.156 µg/mL

CCC(C)n1ncn(-c2ccc(N3CCN(c4ccc(OC[C@@H]5CO[C@@](Cn6cncn6)(c6ccc(Cl)cc6Cl)O5)cc4)CC3)cc2)c1=O (stereo partly shown) [7 + 8]
MIC ([5]; Candida albicans): < 0.078 µg/mL

CC(O)C(C)n1ncn(-c2ccc(N3CCN(c4ccc(OC[C@@H]5CO[C@@](Cn6cncn6)(c6ccc(Cl)cc6Cl)O5)cc4)CC3)cc2)c1=O (stereo partly shown) [11 + 12]
MIC [6]: 0.78 µg/mL | zone of inhibition at 10000 µg/mL [2]: 25 mm | MIC [7]: 0.137 µg/mL | selectivity ratio [3]: 6.5 | solubility [4]: 0.59 µg/mL | MIC ([5]; Candida albicans, C. albicans strain 10231 (Table 3), read-out: Antifungal MIC): 1 µg/mL | MIC [5, 12]: 0.25 µg/mL | MIC [5, 13]: 0.125 µg/mL | MIC [5, 14]: 0.05 µg/mL | MIC [5, 15]: 0.5 µg/mL | MIC ([5]; Candida albicans, C. albicans strain 62342 (Table 3), read-out: Antifungal MIC): 0.5 µg/mL | MIC [5, 11]: 0.05 µg/mL | MIC [8]: 0.195 µg/mL

C[C@H](OS(=O)(=O)O)[C@@H](C)n1ncn(-c2ccc(N3CCN(c4ccc(OC[C@H]5CO[C@](Cn6cncn6)(c6ccc(Cl)cc6Cl)O5)cc4)CC3)cc2)c1=O [Compound 2-sulfate]
MIC ([5]; Candida albicans, C. albicans (Table 7, esters), read-out: Antifungal MIC): 6.25 µg/mL (≈ 7.8 µM)

CC(O)C(C)n1ncn(-c2ccc(N3CCN(c4ccc(OC[C@H]5CO[C@](Cn6cncn6)(c6ccc(Cl)cc6Cl)O5)cc4)CC3)cc2)c1=O (stereo partly shown) [Compound 3 + 4]
Inhibition of P450 3A4 in words [9]: notably less inhibition of the P450 3A4 enzyme than the 2S,4R isomers | IC50/MIC ratio in words [3]: excellent results

CC[C@H](C)n1ncn(-c2ccc(N3CCN(c4ccc(OC[C@H]5CO[C@](Cn6cncn6)(c6ccc(Cl)cc6Cl)O5)cc4)CC3)cc2)c1=O [Compound 5, reference compound]
MIC ([5]; Candida albicans): 0.312 µg/mL (≈ 0.443 µM)

CC[C@@H](C)n1ncn(-c2ccc(N3CCN(c4ccc(OC[C@H]5CO[C@](Cn6cncn6)(c6ccc(Cl)cc6Cl)O5)cc4)CC3)cc2)c1=O [Compound 6, reference compound]
MIC ([5]; Candida albicans): 0.312 µg/mL (≈ 0.443 µM)

CC[C@H](C)n1ncn(-c2ccc(N3CCN(c4ccc(OC[C@@H]5CO[C@@](Cn6cncn6)(c6ccc(Cl)cc6Cl)O5)cc4)CC3)cc2)c1=O [Compound 7, reference compound]
MIC ([5]; Candida albicans): < 0.078 µg/mL

CC[C@@H](C)n1ncn(-c2ccc(N3CCN(c4ccc(OC[C@@H]5CO[C@@](Cn6cncn6)(c6ccc(Cl)cc6Cl)O5)cc4)CC3)cc2)c1=O [Compound 8, reference compound]
MIC ([5]; Candida albicans): < 0.078 µg/mL

C[C@@H](O)[C@H](C)n1ncn(-c2ccc(N3CCN(c4ccc(OC[C@@H]5CO[C@@](Cn6cncn6)(c6ccc(Cl)cc6Cl)O5)cc4)CC3)cc2)c1=O [Compound 9]
MIC [6]: 0.78 µg/mL (≈ 1.08 µM) | zone of inhibition at 10000 µg/mL [2]: 20 mm | MIC [7]: 0.137 µg/mL (≈ 0.19 µM) | selectivity ratio [3]: 7.4 | solubility [4]: 0.045 µg/mL (≈ 0.0624 µM) | MIC [5, 12]: 0.25 µg/mL (≈ 0.346 µM) | MIC [5, 13]: 0.125 µg/mL (≈ 0.173 µM) | MIC [5, 14]: 0.05 µg/mL (≈ 0.0693 µM) | MIC [5, 15]: 0.25 µg/mL (≈ 0.346 µM) | MIC [5, 11]: 0.05 µg/mL (≈ 0.0693 µM) | MIC [8]: 0.195 µg/mL (≈ 0.27 µM)

C[C@H](O)[C@@H](C)n1ncn(-c2ccc(N3CCN(c4ccc(OC[C@@H]5CO[C@@](Cn6cncn6)(c6ccc(Cl)cc6Cl)O5)cc4)CC3)cc2)c1=O [Compound 10]
MIC [6]: 0.78 µg/mL (≈ 1.08 µM) | zone of inhibition at 10000 µg/mL [2]: 22 mm | MIC [7]: 0.137 µg/mL (≈ 0.19 µM) | selectivity ratio [3]: 19 | Water solubility [4]: not detected | Area [4]: not even detected | MIC [5, 12]: 0.25 µg/mL (≈ 0.346 µM) | MIC [5, 13]: 0.125 µg/mL (≈ 0.173 µM) | MIC [5, 14]: 0.025 µg/mL (≈ 0.0346 µM) | MIC [5, 15]: 0.25 µg/mL (≈ 0.346 µM) | MIC [5, 11]: 0.025 µg/mL (≈ 0.0346 µM) | MIC [8]: 0.195 µg/mL (≈ 0.27 µM)

CCN(CC)CCNC(=O)c1ccc(NC(C)=O)cc1 [acetyl-procainamide]
Effect on cardiac repolarization [10]: prolongation of cardiac repolarization | Block of delayed rectifier (IK) [10]: ability to block a cellular potassium channel called the delayed rectifier (IK)

C=C[C@H]1C[N@@]2CC[C@H]1C[C@@H]2[C@@H](O)c1ccnc2ccc(OC)cc12 [quinidine]
Effect on cardiac repolarization [10]: prolongation of cardiac repolarization | Block of delayed rectifier (IK) [10]: ability to block a cellular potassium channel called the delayed rectifier (IK)

CC(C)NCC(O)c1ccc(NS(C)(=O)=O)cc1 (stereo not shown) [sotalol]
Effect on cardiac repolarization [10]: prolongation of cardiac repolarization | Block of delayed rectifier (IK) [10]: ability to block a cellular potassium channel called the delayed rectifier (IK)

(2S,4R)-4-[4-[4-[4-[[2,4-dichlorophenyl)-2-(1H-1,2,4-triazol-1-ylmethyl)-1,3-dioxolan-4-yl]methoxy]phenyl]-1-piperazinyl]-2,4-dihydro-2-[(1S,2R)-(2-hydroxy-1-methylpropyl)]-3H-1,2,4,-triazol-3-one [Compound 2]
Antifungal MIC [6]: 0.39 µg/mL | Kirby-Bauer zone of inhibition [2]: 20 mm | IC50 /MIC Ratio [9]: 70 | Antifungal MIC [7]: 0.137 µg/mL | Inhibition of P450 3A4 in words ([3]; testosterone 6β-hydroxylase activity): notably less inhibition of the P450 3A4 enzyme than the 2S,4R isomers | IC50/MIC ratio in words [3]: excellent results | Water solubility [4]: not detected | Area [4]: not even detected | Antifungal MIC ([5]; C. albicans strain 10231 (Table 3)): 0.5 µg/mL | Antifungal MIC ([5]; C. albicans strain 28516 (Table 3)): 0.25 µg/mL | Antifungal MIC ([5]; C. albicans strain 28815 (Table 3)): 0.5 µg/mL | Antifungal MIC ([5]; C. albicans strain 44203 (Table 3)): 0.05 µg/mL | Antifungal MIC ([5]; C. albicans strain 44373 (Table 3)): 0.25 µg/mL | Antifungal MIC ([5]; C. albicans strain 62342 (Table 3)): 1.0 µg/mL | MIC ([5]; Candida albicans strain 44203 (Table 4)): 0.05 µg/mL | Water solubility [1]: < 0.01 µg/mL | Antifungal MIC [8]: 0.39 µg/mL
